SMILES strings stand for the structures.

By IC50 is commonly meant the concentration needed to halve the response being measured. The low end stands for higher potency, the high end for lower potency.

The target in this assay is T1, LCK KD GST (225-509) (Homo sapiens, UniProt P06239).
T1 construct: LCK KD GST (225-509); GST
T1 sequence (P06239 225-509): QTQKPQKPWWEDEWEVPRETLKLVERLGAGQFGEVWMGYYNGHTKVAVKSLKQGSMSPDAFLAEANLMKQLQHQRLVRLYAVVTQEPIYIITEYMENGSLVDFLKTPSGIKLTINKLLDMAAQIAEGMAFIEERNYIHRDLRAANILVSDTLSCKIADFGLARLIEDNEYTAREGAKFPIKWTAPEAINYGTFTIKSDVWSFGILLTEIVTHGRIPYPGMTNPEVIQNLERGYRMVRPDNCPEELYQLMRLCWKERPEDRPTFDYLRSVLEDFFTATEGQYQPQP
In words: LCK Homogenous Time Resolved Fluorescent (HTRF) kinase assay. The assay is classed as biochemical. The protocol: The LCK HTRF assay begins with LCK in the presence of ATP phosphorylating the biotinylated peptide Gastrin. The reaction incubates for 90 min. To quench the assay detection reagents are added which both stop the reaction by diluting out the enzyme and chelating the metals due to the presence of EDTA. Once the detection reagents are added the assay incubates for 30 min to allow for equilibration of the detection reagents.
Buffer conditions are as follows: 50 mM HEPES pH 7.5, 50 mM NaCl, 20 mM MgCl, 5 mM MnCl, 2 mM DTT, 0.05% BSA.
The assay is quenched and stopped with 160 μL of detection reagent. Detection reagents are as follows: Buffer made of 50 mM Tris, pH 7.5, 100 mM NaCl, 3 mM EDTA, 0.05% BSA, 0.1% Tween20.
The assay plate is read in either a Discovery or a RubyStar.
(TR-FRET usually uses a lanthanide donor and a delayed reading to cut background.)
With `CNc1nccc(-c2cccnc2Oc2cc(C(=O)Nc3ccc(C(C)C)cc3)ccc2C)n1` [4-methyl-3-((3-(2-(methylamino)-4-pyrimidinyl)-2-pyridinyl)oxy)-N-(4-(1-methylethyl)phenyl)benzamide], the half-maximal inhibitory concentration (IC50) is < 1000 nM.

For the compound `CNc1nccc(-c2cccnc2Oc2cc(C(=O)Nc3cc(-c4ccccc4)ccc3OC)ccc2C)n1` [4-methyl-3-((3-(2-(methylamino)-4-pyrimidinyl)-2-pyridinyl)oxy)-N-(4-(methyloxy)-1,1′-biphenyl-3-yl)benzamide], the IC50 is < 1000 nM. Consider `CNc1nccc(-c2cccnc2Oc2cc(C(=O)N[C@H](C)c3ccccc3)ccc2C)n1` [4-methyl-3-((3-(2-(methylamino)-4-pyrimidinyl)-2-pyridinyl)oxy)-N-((1R)-1-phenylethyl)benzamide], for which the IC50 was < 1000 nM.

As to `CNc1nccc(-c2cccnc2Oc2cc(C(=O)NCc3cccc(C(F)(F)F)c3)ccc2C)n1` [4-methyl-3-((3-(2-(methylamino)-4-pyrimidinyl)-2-pyridinyl)oxy)-N-((3-(trifluoromethyl)phenyl)methyl)benzamide], the IC50 is < 1000 nM. As for `CNc1nccc(-c2cc(N3CCN(C)CC3)cnc2Oc2cc(C(=O)Nc3cccc(C(C)C)c3)ccc2C)n1` [4-methyl-3-((3-(2-(methylamino)-4-pyrimidinyl)-5-(4-methyl-1-piperazinyl)-2-pyridinyl)oxy)-N-(3-(1-methylethyl)phenyl)benzamide], the IC50 was < 1000 nM. Regarding `CNc1nccc(-c2cc(N3CCOCC3)cnc2Oc2cc(C(=O)Nc3cccc(C(C)C)c3)ccc2C)n1` [4-methyl-3-((3-(2-(methylamino)-4-pyrimidinyl)-5-(4-morpholinyl)-2-pyridinyl)oxy)-N-(3-(1-methylethyl)phenyl)benzamide], the concentration for half-maximal inhibition (IC50) is < 1000 nM.

As for `CNc1ncnc(-c2cccnc2Oc2cc(C(=O)Nc3cc(C(F)(F)F)ccc3N3CCCCC3)ccc2C)n1` [4-methyl-3-((3-(4-(methylamino)-1,3,5-triazin-2-yl)-2-pyridinyl)oxy)-N-(2-(1-piperidinyl)-5-(trifluoromethyl)phenyl)benzamide], the IC50 is < 1000 nM. Turning to `CNc1ncnc(-c2cccnc2Oc2cc(C(=O)Nc3cccc(C(F)(F)F)c3C)ccc2C)n1` [4-methyl-3-((3-(4-(methylamino)-1,3,5-triazin-2-yl)-2-pyridinyl)oxy)-N-(2-methyl-3-(trifluoromethyl)phenyl)benzamide], the IC50 was < 1000 nM. In the case of `CNc1ncnc(-c2cccnc2Oc2cc(C(=O)Nc3cccc(C(C)C)c3)ccc2C)n1` [4-methyl-3-((3-(4-(methylamino)-1,3,5-triazin-2-yl)-2-pyridinyl)oxy)-N-(3-(1-methylethyl)phenyl)benzamide] it was < 1000 nM. Under `CNc1ncnc(-c2cccnc2Oc2cc(C(=O)Nc3cccc(OCc4ccccc4)c3)ccc2C)n1` [4-methyl-3-((3-(4-(methylamino)-1,3,5-triazin-2-yl)-2-pyridinyl)oxy)-N-(3-((phenylmethyl)oxy)phenyl)benzamide] stands < 1000 nM; under `CNc1ncnc(-c2cccnc2Oc2cc(C(=O)Nc3cccc(C(F)(F)F)c3)ccc2C)n1` [4-methyl-3-((3-(4-(methylamino)-1,3,5-triazin-2-yl)-2-pyridinyl)oxy)-N-(3-(trifluoromethyl)phenyl)benzamide], < 1000 nM. Under `Cc1ccc(C(=O)Nc2ccc(C(F)(F)F)cc2)cc1Nc1ncccc1-c1ccncn1` [4-methyl-3-((3-(4-pyrimidinyl)-2-pyridinyl)amino)-N-(4-(trifluoromethyl)phenyl)benzamide] stands < 1000 nM. Regarding `Cc1ccc(C(=O)Nc2cccc(C(F)(F)F)c2)cc1Oc1ncccc1-c1ccncn1` [4-methyl-3-((3-(4-pyrimidinyl)-2-pyridinyl)oxy)-N-(3-(trifluoromethyl)phenyl)benzamide], the IC50 is < 1000 nM. `CNc1cc(-c2cccnc2Oc2cc(C(=O)Nc3cccc(C(F)(F)F)c3)ccc2C)ncn1` [4-methyl-3-((3-(6-(methylamino)-4-pyrimidinyl)-2-pyridinyl)oxy)-N-(3-(trifluoromethyl)phenyl)benzamide]: the IC50 is < 1000 nM. For `COc1ccc(C(F)(F)F)cc1NC(=O)c1ccc(C)c(Oc2ncccc2-c2ccncn2)c1` [4-methyl-N-(2-(methyloxy)-5-(trifluoromethyl)phenyl)-3-((3-(4-pyrimidinyl)-2-pyridinyl)oxy)benzamide], the IC50 is < 1000 nM. In the case of `Cc1ccc(C(=O)Nc2cccc(C(C)C)c2)cc1Oc1ncccc1-c1ncnc(NCCCN2CCOCC2)n1` [4-methyl-N-(3-(1-methylethyl)phenyl)-3-((3-(4-((3-(4-morpholinyl)propyl)amino)-1,3,5-triazin-2-yl)-2-pyridinyl)oxy)benzamide] it was < 1000 nM; in that of `CNc1nccc(-c2cccnc2Oc2cccc(NC(=O)c3cc(C(C)(C)C)ccc3OC)c2)n1` [5-(1,1-dimethylethyl)-N-(3-((3-(2-(methylamino)-4-pyrimidinyl)-2-pyridinyl)oxy)phenyl)-2-(methyloxy)benzamide], < 1000 nM.

On to `CNc1nccc(-c2cccnc2Oc2cc(NC(=O)c3cc(C(C)(C)C)ccc3OC)ccc2C)n1` [5-(1,1-dimethylethyl)-N-(4-methyl-3-((3-(2-(methylamino)-4-pyrimidinyl)-2-pyridinyl)oxy)phenyl)-2-(methyloxy)benzamide], for which the IC50 is < 1000 nM. In the case of `CNc1nccc(-c2cccnc2Oc2ccc(NC(=O)Nc3cc(Cl)ccc3Cl)cc2C)n1` [N-(2,5-dichlorophenyl)-N′-(3-methyl-4-((3-(2-(methylamino)-4-pyrimidinyl)-2-pyridinyl)oxy)phenyl)urea] it was < 1000 nM. Under `CNc1nccc(-c2cccnc2Oc2ccc(NC(=O)Nc3cc(C)ccc3C)cc2C)n1` [N-(2,5-dimethylphenyl)-N′-(3-methyl-4-((3-(2-(methylamino)-4-pyrimidinyl)-2-pyridinyl)oxy)phenyl)urea] stands < 1000 nM; under `CNc1cc(-c2cccnc2Oc2ccc(F)c(C(=O)Nc3cc(C(C)(C)C)ccc3N(C)CCCN(C)C)c2)ccn1` [N-(2-((3-(dimethylamino)propyl)(methyl)amino)-5-(1,1-dimethylethyl)phenyl)-2-fluoro-5-((2′-(methylamino)-3,4′-bipyridin-2-yl)oxy)benzamide], < 1000 nM; under `CNc1ncnc(-c2cccnc2Oc2ccc(F)c(C(=O)Nc3cc(C(C)C)ccc3N(C)CCCN(C)C)c2)n1` [N-(2-((3-(dimethylamino)propyl)(methyl)amino)-5-(1-methylethyl)phenyl)-2-fluoro-5-((3-(4-(methylamino)-1,3,5-triazin-2-yl)-2-pyridinyl)oxy)benzamide], < 1000 nM. As to `CNc1ncnc(-c2cccnc2Oc2ccc(F)c(C(=O)Nc3cc(C(F)(F)C(F)(F)F)ccc3N(C)CCCN(C)C)c2)n1` [N-(2-((3-(dimethylamino)propyl)(methyl)amino)-5-(pentafluoroethyl)phenyl)-2-fluoro-5-((3-(4-(methylamino)-1,3,5-triazin-2-yl)-2-pyridinyl)oxy)benzamide], the 50% inhibitory concentration (IC50) was < 1000 nM. Under `CNc1ncnc(-c2cccnc2Oc2ccc(F)c(C(=O)Nc3cc(C(F)(F)F)ccc3N(C)CCCN(C)C)c2)n1` [N-(2-((3-(dimethylamino)propyl)(methyl)amino)-5-(trifluoromethyl)phenyl)-2-fluoro-5-((3-(4-(methylamino)-1,3,5-triazin-2-yl)-2-pyridinyl)oxy)benzamide] stands < 1000 nM; under `CNc1cc(-c2cccnc2Oc2cc(C(=O)Nc3cc(C(F)(F)F)ccc3N(C)CCCN(C)C)ccc2C)ccn1` [N-(2-((3-(dimethylamino)propyl)(methyl)amino)-5-(trifluoromethyl)phenyl)-4-methyl-3-((2′-(methylamino)-3,4′-bipyridin-2-yl)oxy)benzamide], < 1000 nM. As to `CNc1nccc(-c2cccnc2Oc2cc(C(=O)Nc3cc(C(F)(F)F)ccc3N(C)CCCN(C)C)ccc2C)n1` [N-(2-((3-(dimethylamino)propyl)(methyl)amino)-5-(trifluoromethyl)phenyl)-4-methyl-3-((3-(2-(methylamino)-4-pyrimidinyl)-2-pyridinyl)oxy)benzamide], the half-inhibitory concentration (IC50) is < 1000 nM.

For the compound `CNc1ncnc(-c2cccnc2Oc2cc(C(=O)Nc3cc(C(F)(F)F)ccc3N(C)CCCN(C)C)ccc2C)n1` [N-(2-((3-(dimethylamino)propyl)(methyl)amino)-5-(trifluoromethyl)phenyl)-4-methyl-3-((3-(4-(methylamino)-1,3,5-triazin-2-yl)-2-pyridinyl)oxy)benzamide], the IC50 is < 1000 nM. `CNc1ncnc(-c2cccnc2Oc2ccc(NC(=O)Nc3cc(C(F)(F)F)ccc3N(C)CCCN(C)C)c3ccccc23)n1` [N-(2-((3-(dimethylamino)propyl)(methyl)amino)-5-(trifluoromethyl)phenyl)-N′-(4-((3-(4-(methylamino)-1,3,5-triazin-2-yl)-2-pyridinyl)oxy)-1-naphthalenyl)urea]: the IC50 is < 1000 nM.

Turning to `C#Cc1ccc(N(C)CCCN(C)C)c(NC(=O)c2cc(Oc3ncccc3-c3ccnc(NC)n3)ccc2F)c1` [N-(2-((3-(dimethylamino)propyl)(methyl)amino)-5-ethynylphenyl)-2-fluoro-5-((3-(2-(methylamino)-4-pyrimidinyl)-2-pyridinyl)oxy)benzamide], the concentration for half-maximal inhibition (IC50) was < 1000 nM.

Regarding `CNc1nccc(-c2cccnc2Oc2cc(C(=O)Nc3cc(C(F)(F)F)ccc3N3CC[C@H](N(C)C)C3)ccc2C)n1` [N-(2-((3S)-3-(dimethylamino)-1-pyrrolidinyl)-5-(trifluoromethyl)phenyl)-4-methyl-3-((3-(2-(methylamino)-4-pyrimidinyl)-2-pyridinyl)oxy)benzamide], the half-inhibitory concentration (IC50) is < 1000 nM.

Values taken from US8476434B2, “Protein kinase modulators and method of use” (Amgen Inc., priority 2004, dated 2013).
